Counter-ions that a name gives are not always drawn.
Key:
[1] = system: Isolated Rat Bladder Strips; experiment: Inhibition of contractions in isolated rat bladder strips (KCl-enhanced contractile activity); design: species or system Sprague-Dawley rats; settings: 0.5 h, 15 mM KCl added, contractile activity measured in last minute of 30 minute challenge
Method: Sprague-Dawley rats (150-200 g) are rendered unconscious by CO2 asphyxiation and then euthanized by cervical dislocation. The bladder is removed into warm (37° C.) physiological salt solution (PSS) of the following composition (mM): NaCl, 118.4; KCI, 4.7; CaCl2, 2.5; MgSO4, […]; NaHCO3, 24.9; KH2PO4, 1.2; glucose, 11.1; EDTA, 0.023; gassed with […]; pH 7.4. The bladder is opened and then cut into strips 1-2 mm in width and 7-10 nmm in length. The strips are subsequently suspended in a 10 mL tissue bath under an initial resting tension of 1.5 g. The strips are held in place by two surgical clips one of which is attached to a fixed hook while the other is attached to an isometric force transducer. […] The carbachol is then washed out and the tissue allowed to relax to its resting level of activity. Following a further 30 min period of recovery an additional 15 mM KCl are introduced into the tissue bath. This increase in KCl concentration results in a large increase in the amplitude of spontaneous contractions (and initiation of contractions in previously quiescent strips) superimposed upon a small increase in basal tone. Following stabilization of this enhanced level of contractile activity, incremental increases in the concentration of test compound or vehicle are introduced into the tissue bath. Contractile activity is measured for each compound or vehicle concentration during the last minute of a 30 minute challenge.
The isometric force developed by the bladder strips is measured using a […] to elicit 50% inhibition of pre-drug contractile activity (IC50 concentration) and is calculated from this concentration-response curve.

[2] = system: hypertrophied bladder (detrusor) smooth muscle; experiment: Inhibition of spontaneous contractions in vivo, hypertrophied rat bladder model (cystometry); design: species or system Female Sprague-Dawley rats; settings: 10 mg/kg p.o., cystometry one hour after dosing
Method: In addition, we tested the ability of compounds to inhibit the hyperactivity of hypertrophied bladder (detrusor) smooth muscle in conscious female rats with hypertrophied bladders and thereby alleviate urinary incontinence in rats according to the following protocol described by Malmgren et al. (J. Urol. 1989, 142, 1134.):
Female Sprague-Dawley rats, ranging in weight from 190-210 g are used. Up to 25 animals are prepared each time. After development of bladder hypertrophy 4-8 animals are used per test.
Compounds are dissolved in PEG-200 and administered by gastric gavage or intravenously in a volume of 5 mL/kg. For primary screening all drugs are administered at the arbitrary dose of 10 mg/kg p.o. to groups of 4 rats.
The animals are anesthetized with halothane. Through a midline incision the bladder and urethra are exposed and a ligature of 4-0 silk is tied around the proximal urethra in the presence of a stainless steel rod (1 mm diameter) to produce a partial occlusion. […] The following urodynamic variables are recorded: […]
The mean value of each variable is calculated before and after compound administration. For each compound the changes in the variables measured are compared to the values obtained before treatment and expressed as percent inhibition. The data are also subjected to 2-way analysis of variance to determine significant (p<0.05) changes in the variable measured. […]

Row | Structure (SMILES) | melting point | IC50 [1] | % Red (F): percent reduction in the total number of spontaneous contractions [2]
1 | Cc1nn(C)c(NCC(C)(C)C)c1NCc1ccc(C#N)cc1 (as salt: tosylate) [Example 2, 4-{[5-(2,2-Dimethyl-propylamino)-1,3-dimethyl-1H-pyrazol-4-ylamino]-methyl}-benzonitrile] | 102 to 104 °C | – | –
2 | Cc1nn(C)c(NCC(C)(C)C)c1NCc1ccc(Cl)cc1Cl [Example 4, N(4)-(2,4-Dichloro-benzyl)-N(3)-(2,2-dimethyl-propyl)-2,5-dimethyl-2H-pyrazole-3,4-diamine] | – | 11.8 µM | –
3 | Cc1nn(C)c(NCC(C)(C)C)c1NCc1ccc(F)cc1F [Example 6, N(4)-(2,4-Difluoro-benzyl)-N(3)-(2,2-dimethyl-propyl)-2,5-dimethyl-2H-pyrazole-3,4-diamine] | – | 13.5 µM | –
4 | Cc1cc(C)c(CNc2c(C)nn(C)c2NCC(C)(C)C)c(C)c1 [Example 8, N(3)-(2,2-Dimethyl-propyl)-2,5-dimethyl-N(4)-(2,4,6-trimethyl-benzyl)-2H-pyrazole-3,4-diamine] | 114 to 120 °C | 17.8 µM | –
5 | Cc1nn(C)c(NCC(C)(C)C)c1Nc1ccccc1 [Example 11, N(3)-(2,2-Dimethyl-propyl)-2,5-dimethyl-N(4)-phenyl-2H-pyrazole-3,4-diamine] | – | 4.3 µM | –
6 | Cc1cc(Cl)ccc1Nc1c(C)nn(C)c1NCC(C)(C)C [Example 12, N(4)-(4-Chloro-2-methyl-phenyl)-N(3)-(2,2-dimethyl-propyl)-2,5-dimethyl-2H-pyrazole-3,4-diamine] | – | 12.5 µM | –
7 | Cc1nn(C)c(NCC(C)(C)C)c1Nc1ccc(C#N)cc1 [Example 13, 4-[5-(2,2-Dimethyl-propylamino)-1,3-dimethyl-1H-pyrazol-4-ylamino]-benzonitrile] | 131 to 134 °C | 17.9 µM | –
8 | Cc1nn(C)c(NCC(C)(C)C)c1Nc1ccc(Cl)cc1 [Example 14, N(4)-(4-Chloro-phenyl)-N(3)-(2,2-dimethyl-propyl)-2,5-dimethyl-2H-pyrazole-3,4-diamine] | – | 22.9 µM | –

Continued, in another order:

Row | melting point | IC50 [1] | Structure (SMILES) | % Red (F): percent reduction in the total number of spontaneous contractions [2]
9 | 88 to 90 °C | 4.9 µM | Cc1nn(C)c(NCC(C)(C)C)c1NCc1ccncc1 [Example 1, N(3)-(2,2-Dimethyl-propyl)-2,5-dimethyl-N(4)-pyridin-4-ylmethyl-2H-pyrazole-3,4-diamine] | −36 ± 7%
10 | – | 8.26 µM | Cc1nn(C)c(NCC(C)(C)C)c1NCc1ccc(C#N)cc1 [Example 2, 4-{[5-(2,2-Dimethyl-propylamino)-1,3-dimethyl-1H-pyrazol-4-ylamino]-methyl}-benzonitrile] | –
11 | 32 to 39 °C | 11.5 µM | Cc1nn(C)c(NCC(C)(C)C)c1NCc1ccc(F)cc1 [Example 3, N(3)-(2,2-Dimethyl-propyl)-N(4)-(4-fluoro-benzyl)-2,5-dimethyl-2H-pyrazole-3,4-diamine] | –
12 | – | 12.6 µM | CCC(C)(C)CNc1c(NCc2ccc(C#N)cc2)c(C)nn1C [Example 5, 4-{[5-(2,2-Dimethyl-butylamino)-1,3-dimethyl-1H-pyrazol-4-ylamino]-methyl}-benzonitrile] | –
13 | – | 15.4 µM | Cc1nn(C)c(NCC(C)(C)C)c1NCc1cccnc1 [Example 7, N(3)-(2,2-Dimethyl-propyl)-2,5-dimethyl-N(4)-pyridin-3-ylmethyl-2H-pyrazole-3,4-diamine] | –
14 | – | 19.2 µM | CCC(C)(C)CNc1c(NCc2ccncc2)c(C)nn1C [Example 9, N(3)-(2,2-Dimethyl-butyl)-2,5-dimethyl-N(4)-pyridin-4-ylmethyl-2H-pyrazole-3,4-diamine] | –
15 | – | 19.9 µM | CCC(C)(C)CNc1c(NCc2ccccc2)c(C)nn1C [Example 10, N(4)-Benzyl-N(3)-(2,2-dimethyl-butyl)-2,5-dimethyl-2H-pyrazole-3,4-diamine] | –
